The record followed here is ChEMBL document CHEMBL3507680, “University of Dundee, Gates Library screen for HepG2 cell viability”.

The data set in a line: Human HepG2 cell viability assay in 384 well format. As to conditions: HepG2 cells, read-out: Inhibition. The data set is classed as toxicity, cell-based. Also on record: dose 125 nL, time 70.5 hour; cytotoxicity at 70.5 h: concentration not given beside the values.
Turning to `Brc1ccccc1-c1nnc(CNCCn2cccn2)o1`, the cytotoxicity at 70.5 h worked out at 12.2%. On to `Clc1cccc(Cl)c1-c1nnc(CNCCn2cccn2)o1`, for which the cytotoxicity at 70.5 h is -4.1%. `Cc1ccccc1C1(CNC(=O)CCN2C(=O)CCC2=O)CC1`: the cytotoxicity at 70.5 h was -12.8%. Consider `CN1CCOC(CNCc2coc(-c3cccc(Cl)c3)n2)C1` (stereo unspecified), for which the cytotoxicity at 70.5 h was -0.236%. In the case of `Cc1ccc(C(CNC(=O)c2c(C)noc2C(C)C)N(C)C)cc1` (stereo unspecified), the cytotoxicity at 70.5 h was -4.44%. Then `CCN1CCN(C(=O)c2cnc3c(cnn3C3CCCC3)c2)CC1`, with -6.55%. Consider `CN1CCOC(CNCc2cccc(OC(F)(F)F)c2)C1` (stereo unspecified), for which the cytotoxicity at 70.5 h was -11.5%.

As to `CC1CN(C)CCN1C(=O)c1cnc2c(cnn2C2CCCC2)c1` (stereo unspecified), the cytotoxicity at 70.5 h is -2.54%.

With `Cc1cnn(CC2CCCN2C(=O)c2sccc2-n2cnnn2)c1` (stereo unspecified), the cytotoxicity at 70.5 h was -4.41%. In the case of `O=C(CCc1ccccn1)N1CCCC(n2cncn2)C1` (stereo unspecified), the cytotoxicity at 70.5 h was -13.6%. With `Cc1noc(C)c1C(=O)NCC(c1ccsc1)N(C)C` (stereo unspecified), the cytotoxicity at 70.5 h is -8.5%. As for `COc1ccc(NC(=O)C2CC(=O)N(C)C2)cn1` (stereo unspecified), the cytotoxicity at 70.5 h was -5.38%. Regarding `Cc1cc(NC(=O)NCC(C(C)C)N2CCOCC2)n(C)n1` (stereo unspecified), the cytotoxicity at 70.5 h was -6.55%. To `Cc1cc(C(=O)NCC(c2ccsc2)N(C)C)no1` (stereo unspecified) belongs -5.66%; to `CCOc1ccc(C#N)cc1NCC(=O)NC(=O)NC`, -3.9%. Then `OC(CN1CCC(c2ccn[nH]2)CC1)c1cccc(C(F)(F)F)c1` (stereo unspecified), with -7.35%; and `O=C(c1cnc2c(cnn2C2CCCC2)c1)N1CCCSCC1`, with -6.43%; and `O=C(c1ccc(-n2ccnc2)cc1)N1CCCC(n2ccnc2)C1` (stereo unspecified), with -6.23%. On to `CCN(CC1CCCO1)C(=O)Nc1cc(C(N)=O)ccc1OC` (stereo unspecified), for which the cytotoxicity at 70.5 h was -5.25%.

For the compound `Cc1cnn(CC2CCCN2C(=O)c2ccccc2-n2cnnn2)c1` (stereo unspecified), the cytotoxicity at 70.5 h was -4.97%. As to `Cc1cccc(NC2CCN(C(=O)Nc3ccncc3)CC2)n1`, the cytotoxicity at 70.5 h was 24.2%. To `Fc1ccc(-c2cnc(CN3CCOC(Cn4cccn4)C3)o2)cc1` (stereo unspecified) belongs -5.15%. Then `N#Cc1cccnc1N1CCCN(C(=O)CCc2nccs2)CC1`, with -1.9%; and `Cn1ccc2c(C(=O)N3CCCC3c3noc(C4CC4)n3)cccc21` (stereo unspecified), with -1.84%. Then `CCCc1noc2ncc(C(=O)N3CCCC3c3cnn(C)c3)cc12` (stereo unspecified), with -6.19%; and `CCc1nccn1CC1CCCN1S(=O)(=O)Cc1ccccc1` (stereo unspecified), with -10.3%. In the case of `O=C(c1cccc2cn[nH]c12)N1CCCC1c1noc(C2CC2)n1` (stereo unspecified), the cytotoxicity at 70.5 h was -2.84%. `CC(C)(C)c1cnc(CN2CCCCC2Cn2cccn2)o1` (stereo unspecified): the cytotoxicity at 70.5 h was determined as 18.8%. To `CCc1c(C(=O)NC2CCS(=O)(=O)C2)cnn1-c1ccc(C)cc1` (stereo unspecified) belongs -6.41%. On to `Cc1cc(CN2CCN(C(=O)NCc3cccs3)CC2)no1`, for which the cytotoxicity at 70.5 h was -4.63%.

In the case of `Cc1cccc(-n2ncc(C(=O)NCC3CCS(=O)(=O)C3)c2C)c1` (stereo unspecified), the cytotoxicity at 70.5 h is 0.102%.

With `CCCc1noc(CN2CCC(c3ccnn3CCO)CC2)n1`, the cytotoxicity at 70.5 h was -0.994%. For `N#Cc1ccccc1N1CCCN(C(=O)CCc2ccsc2)CC1`, the cytotoxicity at 70.5 h was 1.39%.

As for `Cc1cc(CN2CCN(C(=O)NCc3csc(C)n3)CC2)no1`, the cytotoxicity at 70.5 h was 17.1%. As to `Cc1cnn(C2CCCN(C(=O)Cc3n[nH]c4ccccc34)C2)c1` (stereo unspecified), the cytotoxicity at 70.5 h was 0.337%. Then `Cc1nc(C2CCN(C(=O)c3cc(C4CC4)[nH]n3)CC2)no1`, with -0.899%; and `Fc1ccc(-c2nc(CN3CCCCC3Cn3cncn3)co2)cc1` (stereo unspecified), with -3.61%. Turning to `O=c1[nH]c(CCN2CCCC2Cn2cncn2)nc2ccccc12` (stereo unspecified), the cytotoxicity at 70.5 h was -9.5%. Then `Cn1cc(C2CCCN2CCc2nc3ccccc3c(=O)[nH]2)cn1` (stereo unspecified), with -2.12%; and `Cc1nn(C)c(C)c1C1CCCN1C(=O)c1cnc2onc(C)c2c1` (stereo unspecified), with -7.3%; and `Cc1cnn(CC2CCCCN2C(=O)c2n[nH]c3ccccc23)c1` (stereo unspecified), with 16%. Then `O=C(CCCc1nnc(-c2ccccc2)o1)N1CCC1`, with -14.2%.

As to `Cc1nc(C2CCCN(C(=O)c3cc(C(C)(C)C)on3)C2)no1` (stereo unspecified), the cytotoxicity at 70.5 h is -1.93%. Take `Cc1cc(CN2CCN(C(=O)NCc3ccoc3)CC2)no1`: the cytotoxicity at 70.5 h was -1.05%. Take `Cc1nc(C)n(CC2CCCN(CC(=O)NC3CCOCC3)C2)n1` (stereo unspecified): the cytotoxicity at 70.5 h was found to be 3.14%.

Consider `Cc1cc(C)n(CC2CCCN2C(=O)c2cccc3[nH]ncc23)n1` (stereo unspecified), for which the cytotoxicity at 70.5 h is -8.53%. Take `CC1CCCN(Cc2csc(-c3ncccn3)n2)CC1` (stereo unspecified): the cytotoxicity at 70.5 h amounted to 9.27%. To `Nc1nc(CN2CCOC(Cn3cncn3)C2)nc2ccccc12` (stereo unspecified) belongs -3.11%; to `Cc1nc(C)n(C2CCCN(C(=O)c3ccc4c(c3)COC4)C2)n1` (stereo unspecified), 0.389%. In the case of `Cc1nc(CN2CCCC(N(C)CCc3ccncc3)C2)no1` (stereo unspecified), the cytotoxicity at 70.5 h amounted to 17.8%.

With `CC(C)=CCN(C)C1CCCN(Cc2noc(C)n2)C1` (stereo unspecified), the cytotoxicity at 70.5 h worked out at 21.1%. Regarding `Cc1ccc(-c2cc(CNC(=O)N3CCOC(C)C3)on2)cc1` (stereo unspecified), the cytotoxicity at 70.5 h is -6.72%.

For `CC(=O)NC1CCCN(C(=O)Nc2cnc3c(cnn3C(C)C)c2)C1` (stereo unspecified), the cytotoxicity at 70.5 h is -2.01%.

Consider `O=C(NC1CCS(=O)(=O)C1)N1CCN(c2cnccn2)CC1` (stereo unspecified), for which the cytotoxicity at 70.5 h is -7.1%. Then `COc1cc(CNCc2ccc(C(C)O)cc2)cc2c1OCO2` (stereo unspecified), with 44.3%; and `O=C(C1CCS(=O)(=O)C1)N1CCN(c2cnccn2)CC1` (stereo unspecified), with 13%. On to `O=C(CCN1C(=O)CCC1=O)Nc1cnn(-c2ccccc2Cl)c1`, for which the cytotoxicity at 70.5 h turned out to be 10%. With `O=C(c1cc2c(s1)CCC2)N1CCCCC1Cn1cccn1` (stereo unspecified), the cytotoxicity at 70.5 h is -3.46%. To `CCc1nc(C2CCCN(C(=O)c3cccc4cn[nH]c34)C2)no1` (stereo unspecified) belongs 3.52%. Take `COc1c(C2CCCN2Cc2cc(C)no2)c(C)nn1C` (stereo unspecified): the cytotoxicity at 70.5 h is -9.4%. Then `COc1c(C2CCCN2CC(=O)Nc2cc(C)no2)c(C)nn1C` (stereo unspecified), with -10.7%; and `Cc1nc(C2CCCN2CC(=O)NCCc2ccsc2)no1` (stereo unspecified), with -2.7%. Regarding `COc1cccc(CCNC(=O)CN2CCCC2c2noc(C)n2)c1` (stereo unspecified), the cytotoxicity at 70.5 h is -6.83%. Then `CCS(=O)(=O)c1ccccc1N1CCC(NC(=O)c2ccc[nH]2)CC1`, with -1.59%; and `Cc1ccc(C(=O)NS(=O)(=O)c2cc(Cl)ccc2Cl)c(=O)[nH]1`, with -1.03%. With `CC(C)c1nc2c(n1C)CCN(Cc1nc(-c3cccs3)no1)C2`, the cytotoxicity at 70.5 h is -9.62%. To `Cc1csc(N2CCCN(C(=O)C(C)n3ccnc3)CC2)n1` (stereo unspecified) belongs -3.25%. Consider `CCc1ncc(C(=O)N2CCCCC2Cn2cccn2)s1` (stereo unspecified), for which the cytotoxicity at 70.5 h was -7.11%. Then `CCN1CCN(C(=O)C(C)N2CCN(Cc3nccn3C)CC2)CC1` (stereo unspecified), with 0.843%; and `CN1CCN(C(=O)c2ccc(=O)n(C)c2)Cc2ccccc21`, with -2.39%; and `CN(Cc1ccncc1)CC(c1cccs1)N1CCOCC1` (stereo unspecified), with 36%. As to `CCc1nc(C2CCCN(C(=O)c3cccc4c3ccn4C)C2)no1` (stereo unspecified), the cytotoxicity at 70.5 h is -4.32%.

In the case of `CCn1ccnc1CN1CCN(C(C)C(=O)N2CCC(C)CC2)CC1` (stereo unspecified), the cytotoxicity at 70.5 h stood at 3.72%.

As to `Cc1ccc(-c2noc(CN3CCOC(Cn4cncn4)C3)n2)cc1` (stereo unspecified), the cytotoxicity at 70.5 h is -7.15%. Then `COCCN1CCN(CCCS(=O)(=O)c2ccccc2)CC1C` (stereo unspecified), with 0.059%; and `CN(C)C(=O)Cc1nc(CN2CCn3c(nnc3C3CC3)C2)cs1`, with -18.5%. In the case of `CC(=O)N(Cc1noc(C2CC2)n1)C1CCN(Cc2nccn2C)C1` (stereo unspecified), the cytotoxicity at 70.5 h is -5.66%. Turning to `c1sc(C2CCCC2)nc1CN1CCn2c(nnc2C2CC2)C1`, the cytotoxicity at 70.5 h was determined as 4.56%. `CC(C)c1ncc2c(n1)CN(Cc1nc(Cc3ccccc3)no1)CC2`: the cytotoxicity at 70.5 h was -24.3%.

In the case of `CC(C)c1ncncc1C(=O)N1CCCN(Cc2cccs2)CC1`, the cytotoxicity at 70.5 h is -18.9%. Regarding `COC(=O)c1cccc(NC(=O)CCn2nc(-c3cccs3)oc2=O)c1`, the cytotoxicity at 70.5 h turned out to be 0.767%. On to `O=C(NCCNc1ncccn1)C1CCN(c2ncccn2)CC1`, for which the cytotoxicity at 70.5 h is -10.8%. In the case of `CC(NC(=O)CCC(=O)c1cccs1)c1nnc2n1CCCCC2` (stereo unspecified), the cytotoxicity at 70.5 h is -15.6%. To `Cc1ccc(N(C)C2CCN(C(=O)CCc3ccco3)CC2)nn1` belongs -11.8%. Then `O=C1NCCN1C1CCCN(Cc2nnc(-c3ccc(F)cc3)o2)C1` (stereo unspecified), with -21.9%. With `CNC(=O)c1cccc(NC(=O)Cn2nc(-c3cccs3)oc2=O)c1`, the cytotoxicity at 70.5 h came to 20.9%.

On to `Cc1ccc(NC2CCN(C(=O)CCNS(C)(=O)=O)CC2)nn1`, for which the cytotoxicity at 70.5 h is -19%.

Turning to `NC(=O)COc1cccc(C(=O)N2CCCC(n3ccnc3)C2)c1` (stereo unspecified), the cytotoxicity at 70.5 h is -14.8%.

Regarding `CCc1nc(C2CCCN2C(=O)CCc2cccs2)no1` (stereo unspecified), the cytotoxicity at 70.5 h is -5.42%. Then `CCOc1cc(C(=O)N2CCCC(n3cncn3)C2)ccc1C` (stereo unspecified), with -20.7%; and `CCc1nc(C2CCCN2C(=O)CCc2ccc3c(c2)OCO3)no1` (stereo unspecified), with -24.9%. Turning to `CC1COCCN1Cc1nc(-c2cccc(Br)c2)no1` (stereo unspecified), the cytotoxicity at 70.5 h amounted to 13.8%.

Take `Cc1ccccc1C1(C(=O)NCCN2CCCC2)CCOCC1`: the cytotoxicity at 70.5 h is -13.9%. To `Cc1noc(C(C)N2CCN(CCCN3CCCC3=O)CC2)n1` (stereo unspecified) belongs -11.4%; to `Cc1ccccc1CNC(=O)CN1CCN(Cc2nccn2C)CC1`, -20.5%. To `Cc1cnn(CC2CCCN2Cc2ncc(-c3ccccc3)o2)c1` (stereo unspecified) belongs -18.8%; to `Cc1nc(C)n(CC2CCCN(Cc3cccc(C#N)c3)C2)n1` (stereo unspecified), -15.1%; to `COc1c(CNCc2cccc(Cn3ccnc3)c2)c(C)nn1C`, -1.14%. To `Cn1ccc(C(=O)N2CCN(c3ncccn3)CC2)cc1=O` belongs -20.4%. For the compound `Cn1cnc(S(=O)(=O)NCCN2CCCCCC2=O)c1Cl`, the cytotoxicity at 70.5 h was determined as 14.4%.

Take `COc1c(CNCc2cccc(CN(C)C)c2)c(C)nn1C`: the cytotoxicity at 70.5 h is -12.7%.
